Counter-ions that a name gives are not always drawn. ± gives the uncertainty stated by the source.

The assay has as its system HepG2 (L1.3 5'UTR promoter firefly luciferase reporter). In words: L1 promoter activity (FLuc/RLuc) relative to DMSO vehicle control (% of control); higher = stronger L1 promoter activation. How it is done: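 HepG2 cells in 96-well plates were cotransfected with pGL4.11-L1.3 5'UTR (firefly luciferase driven by the human L1.3 5'UTR promoter) and pGL4.74 (HSV-TK Renilla luciferase internal control), then treated with compound for 6 or 24 h. FLuc/RLuc ratio was normalised to the DMSO vehicle control (% of control); concentrations where RLuc fell below 50% of control were excluded (N.D.). Mean of at least two independent experiments in duplicate or quadruplicate.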

The mark [1] stands for this setting: concentration (uM unless unit written): 10, treatment time: 6 h.
Setting [2] is: concentration (uM unless unit written): 10, treatment time: 24 h.
Where [3] appears, read: concentration (uM unless unit written): 20, treatment time: 6 h.
Where [4] appears, read: concentration (uM unless unit written): 20, treatment time: 24 h.
The mark [5] stands for this setting: concentration (uM unless unit written): 50, treatment time: 6 h.
The mark [6] stands for this setting: concentration (uM unless unit written): 50, treatment time: 24 h.
The mark [7] stands for this setting: concentration (uM unless unit written): 100, treatment time: 6 h.
Where [8] appears, read: concentration (uM unless unit written): 100, treatment time: 24 h.
Setting [9] is: concentration (uM unless unit written): 200, treatment time: 6 h.
[10] abbreviates: concentration (uM unless unit written): 200, treatment time: 24 h.
Where [11] appears, read: concentration (uM unless unit written): 1000, treatment time: 24 h.
Setting [12] is: concentration (uM unless unit written): 500, treatment time: 6 h.
[13] abbreviates: concentration (uM unless unit written): 125, treatment time: 6 h.
[14] abbreviates: concentration (uM unless unit written): 125, treatment time: 24 h.
The mark [15] stands for this setting: concentration (uM unless unit written): 250, treatment time: 6 h.
Where [16] appears, read: concentration (uM unless unit written): 1000, treatment time: 6 h.
The mark [17] stands for this setting: concentration (uM unless unit written): 250, treatment time: 24 h.
Setting [18] is: concentration (uM unless unit written): 500, treatment time: 24 h.
[19] abbreviates: concentration (uM unless unit written): 1, treatment time: 6 h.
Where [20] appears, read: concentration (uM unless unit written): 1, treatment time: 24 h.

Turning to `CC(C)n1c(/C=C/C(O)CC(O)CC(=O)O)c(-c2ccc(F)cc2)c2ccccc21` (stereo not given) [Fluvastatin], the L1 promoter activity by setting is: (concentration (uM unless unit written): 5, treatment time: 6 h) 126 ± 35; (concentration (uM unless unit written): 5, treatment time: 24 h) 134 ± 32; under setting [1], 111 ± 32; under setting [2], 102 ± 23; under setting [3], 99.4 ± 19; under setting [4], 109 ± 25.

On to `CCOC(=O)CC(O)C(=O)OCC` (stereo not given) [Diethyl malate], for which the L1 promoter activity is, setting by setting: (concentration (uM unless unit written): 375, treatment time: 6 h) 127 ± 13; (concentration (uM unless unit written): 750, treatment time: 6 h) 159 ± 18.

For `CC(=O)N[C@H]1[C@@H](O[C@@H]2O[C@H](CC(O)[C@H]3O[C@@H](n4ccc(=O)[nH]c4=O)[C@H](O)[C@@H]3O)[C@H](O)[C@H](O)[C@H]2NC(=O)/C=C/CC(C)C)O[C@H](CO)[C@@H](N)[C@@H]1O` (stereo not given in full) [Tunicamycin], the L1 promoter activity by setting is: (concentration (uM unless unit written): 5 μg/mL, treatment time: 6 h) 76.6 ± 8.1; (concentration (uM unless unit written): 5 μg/mL, treatment time: 24 h) 73.3 ± 3.2; (concentration (uM unless unit written): 10 μg/mL, treatment time: 6 h) 66.6 ± 7.3; (concentration (uM unless unit written): 10 μg/mL, treatment time: 24 h) 84.5 ± 11; (concentration (uM unless unit written): 20 μg/mL, treatment time: 6 h) 63.5 ± 3.2; (concentration (uM unless unit written): 20 μg/mL, treatment time: 24 h) 72.1 ± 7.7. Also, the L1 promoter activity (concentration (uM unless unit written): 40 μg/mL, treatment time: 24 h) came to 75.8 ± 6.2.

Regarding `COC(=O)[C@H](c1ccccc1Cl)N1CCc2sccc2C1` [Clopidogrel], the L1 promoter activity by setting is: under setting [1], 96.7 ± 8.6; under setting [2], 113 ± 5.2; (concentration (uM unless unit written): 25, treatment time: 6 h) 98.5 ± 12; (concentration (uM unless unit written): 25, treatment time: 24 h) 113 ± 14; under setting [5], 92.9 ± 6; under setting [6], 110 ± 9.2. In addition, the L1 promoter activity is 84.6 ± 4.5 under setting [7] and 107 ± 12 under setting [8].

Take `Clc1ccc(C(c2ccccc2Cl)C(Cl)Cl)cc1` (stereo not given) [o.p'-Dichlorodiphenyldichloroethane]: the L1 promoter activity turned out to be 97.3 ± 5 under setting [5], 108 ± 5.8 under setting [6] and 77.5 ± 11 under setting [7].

Take `Cc1cn([C@H]2C[C@H](N=[N+]=[N-])[C@@H](CO)O2)c(=O)[nH]c1=O` [Azidothymidine]: the L1 promoter activity is 107 ± 25 under setting [5]; 106 ± 26 under setting [7]; 111 ± 27 under setting [9]; 104 ± 13 under setting [10]; 110 ± 7.2 under setting [11].

With `CCOC(=O)[C@@]1(CCCCCCOc2ccc(Cl)cc2)CO1` [Etomoxir], the L1 promoter activity by setting is: under setting [5], 127 ± 11; under setting [6], 111 ± 15; under setting [7], 147 ± 12; under setting [8], 143 ± 17; under setting [12], 181 ± 23.

For the compound `CC(=O)N1CCN(c2ccc(OCC3COC(Cn4ccnc4)(c4ccc(Cl)cc4Cl)O3)cc2)CC1` (stereo not given) [Ketoconazol], the L1 promoter activity was 90.8 ± 12 under setting [1]; 82.2 ± 16 under setting [2]; 83.5 ± 11 under setting [3]; 57.5 ± 15 under setting [4]; 71.4 ± 9.3 (concentration (uM unless unit written): 40, treatment time: 6 h); 37.2 ± 4.2 (concentration (uM unless unit written): 40, treatment time: 24 h).

Consider `COC1=C(OC)C(=O)c2ccccc2C1=O` [2,3-Dimethoxy-1,4-naphthoquinone], for which the L1 promoter activity (concentration (uM unless unit written): 15, treatment time: 6 h) turned out to be 119 ± 8.7 and the L1 promoter activity (concentration (uM unless unit written): 30, treatment time: 6 h) was determined as 119 ± 8.1.

Consider `CC(=O)Nc1ccc(O)cc1` [Acetaminophen], for which the L1 promoter activity reads like this: (concentration (uM unless unit written): 10000, treatment time: 6 h) 116 ± 12; (concentration (uM unless unit written): 10000, treatment time: 24 h) 131 ± 18; (concentration (uM unless unit written): 20000, treatment time: 6 h) 115 ± 9.1.

On to `CN1CCC(=C2c3ccccc3CC(=O)c3sccc32)CC1` [Ketotifen fumarate salt], for which the L1 promoter activity is 90.4 ± 6.5 under setting [5]; 89.9 ± 4.6 under setting [6]; 92.3 ± 7.8 under setting [7]; 83.7 ± 8 under setting [8]; 80.3 ± 4.5 under setting [9].

For `O=C(O)c1ccccc1Nc1cccc(C(F)(F)F)c1` [Flufenamic acid], the L1 promoter activity worked out at 130 ± 7.7 (concentration (uM unless unit written): 62.5, treatment time: 6 h); 158 ± 19 (concentration (uM unless unit written): 62.5, treatment time: 24 h); 119 ± 14 under setting [13]; 120 ± 20 under setting [14]; 129 ± 21 under setting [15].

On to `Cc1cccc(Nc2ccccc2C(=O)O)c1C` [Mefenamic acid], for which the L1 promoter activity by setting is: under setting [5], 128 ± 8.3; under setting [6], 91 ± 5.5; under setting [12], 113 ± 19; under setting [16], 93.8 ± 13.

`O=C(O)CC[N+](=O)[O-]` [3-Nitropropionic acid]: the L1 promoter activity under setting [13] turned out to be 114 ± 5; the L1 promoter activity under setting [14] worked out at 95.1 ± 5.4; the L1 promoter activity under setting [15] is 112 ± 14; the L1 promoter activity under setting [17] was found to be 94.2 ± 18; the L1 promoter activity under setting [12] was found to be 119 ± 14; the L1 promoter activity under setting [18] is 80.7 ± 11.

As to `NS(=O)(=O)c1cc(C(=O)O)c(NCc2ccco2)cc1Cl` [Furosemide], the L1 promoter activity was 104 ± 28 under setting [7]; 103 ± 24 under setting [8]; 97.3 ± 11 under setting [15]; 96.2 ± 8.4 under setting [17]; 96.9 ± 5.2 under setting [12]; 91.2 ± 6.5 under setting [18]. In addition, the L1 promoter activity reads like this: under setting [16], 89.1 ± 16; under setting [11], 60.4 ± 2.4.

On to `CCOC(=O)C1=C(COCCN)NC(C)=C(C(=O)OC)C1c1ccccc1Cl` (stereo not given) [Amlodipine besylate], for which the L1 promoter activity is, setting by setting: (concentration (uM unless unit written): 0.5, treatment time: 6 h) 93.6 ± 11; (concentration (uM unless unit written): 0.5, treatment time: 24 h) 105 ± 8.9; under setting [19], 104 ± 10; under setting [20], 101 ± 22; (concentration (uM unless unit written): 2, treatment time: 6 h) 95.7 ± 7.8; (concentration (uM unless unit written): 2, treatment time: 24 h) 107 ± 12. Under setting [1], the L1 promoter activity was 85.2 ± 8.2.

On to `CCCC(CCC)C(=O)O` [Valproic acid], for which the L1 promoter activity by setting is: (concentration (uM unless unit written): 2500, treatment time: 6 h) 90.2 ± 25; (concentration (uM unless unit written): 2500, treatment time: 24 h) 18.5 ± 1.6.

In the case of `CCC1(c2ccc(N)cc2)CCC(=O)NC1=O` (stereo not given) [Aminoglutethimide], the L1 promoter activity by setting is: under setting [15], 140 ± 58; under setting [17], 126 ± 11; under setting [12], 136 ± 35; under setting [18], 102 ± 16; under setting [16], 96 ± 7.4.

As to `CC(=O)Oc1ccccc1C(=O)O` [Acetylsalicylic acid], the L1 promoter activity runs as follows: under setting [19], 103 ± 7.2; under setting [20], 98.7 ± 9.5; (concentration (uM unless unit written): 3, treatment time: 6 h) 115 ± 11; (concentration (uM unless unit written): 3, treatment time: 24 h) 88.3 ± 11; under setting [1], 107 ± 3.8; under setting [2], 105 ± 9.7. Also, the L1 promoter activity is 106 ± 8.5 under setting [5]; 98.2 ± 29 under setting [6]; 123 ± 23 under setting [7]; 112 ± 13 under setting [15]; 105 ± 8.4 under setting [17]; 114 ± 14 under setting [12]. The L1 promoter activity amounted to 86 ± 5.1 under setting [18]; 107 ± 12 under setting [16]; 91.3 ± 6 under setting [11]; 95.4 ± 8 (concentration (uM unless unit written): 2000, treatment time: 6 h); 67.7 ± 5.9 (concentration (uM unless unit written): 2000, treatment time: 24 h); 105 ± 4 (concentration (uM unless unit written): 3000, treatment time: 6 h). For the same compound, the L1 promoter activity by setting is: (concentration (uM unless unit written): 3000, treatment time: 24 h) 53.3 ± 2.5; (concentration (uM unless unit written): 5000, treatment time: 6 h) 111 ± 15; (concentration (uM unless unit written): 5000, treatment time: 24 h) 40.8 ± 1.2.

Regarding `CN(C)CCN(Cc1cccs1)c1ccccn1` [Methapyrilene], the L1 promoter activity runs as follows: under setting [15], 97.7 ± 2.8; under setting [17], 101 ± 25; under setting [12], 86.6 ± 8.4; under setting [16], 72.8 ± 12.

For `Cc1cccc(Nc2cc(Cl)nc(SCC(=O)O)n2)c1C`, the L1 promoter activity is, setting by setting: under setting [9], 98.9 ± 11; under setting [10], 82.7 ± 5.2.

Consider `O=C(O)Cc1ccccc1Nc1c(Cl)cccc1Cl` [Diclofenac], for which the L1 promoter activity by setting is: under setting [13], 109 ± 7.5; under setting [14], 68.5 ± 3.6; under setting [15], 107 ± 1.6; under setting [17], 59.6 ± 5.5.

Values taken from the supplement of paper PMC3770661.
